The supplement of paper PMC10307832

Key:
Assay in all cases: relative viability (nuclei count vs DMSO), 5 days (fraction); higher = more cells survive
TGX 221 + Olaparib = compound: CC1=CN2C(=O)C=C(N=C2C(=C1)C(C)NC3=CC=CC=C3)N4CCOCC4 [TGX 221] + O=C(c1cc(Cc2n[nH]c(=O)c3ccccc23)ccc1F)N1CCN(C(=O)C2CC2)CC1 [Olaparib] (partner 8 µM)
Outline: (§1)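 Relative viability divides the nuclei count in treated wells by that in vehicle wells. Lung cancer cell lines were seeded in 1536-well plates, dosed by pin tool the next day, and fixed and stained after 5 days in one step with final 0.05% Triton X-100, 1% formaldehyde and 1 ug/ml Hoechst. Dosing was a single drug or a fixed anchor-drug dose plus five library-drug doses (not always all listed) in √10 steps, and values are medians of duplicate plates imaged at 4×.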

TGX 221 + Lapatinib = compound: CC1=CN2C(=O)C=C(N=C2C(=C1)C(C)NC3=CC=CC=C3)N4CCOCC4 [TGX 221] + CS(=O)(=O)CCNCc1ccc(-c2ccc3ncnc(Nc4ccc(OCc5cccc(F)c5)c(Cl)c4)c3c2)o1 [Lapatinib] (partner 2 µM)
Outline: as §1

[1] = compound: C1=CC=C(C(=C1)C2=CC=C(C=C2)C3=CSC4=C3C(=C(C(=O)N4)C#N)O)O + CS(=O)(=O)N1CCN(Cc2cc3nc(-c4cccc5[nH]ncc45)nc(N4CCOCC4)c3s2)CC1 [Pictilisib] (partner 1 µM)
Outline: as §1

[2] = compound: C1=CC=C(C(=C1)C2=CC=C(C=C2)C3=CSC4=C3C(=C(C(=O)N4)C#N)O)O + CC(=O)c1c(C)c2cnc(Nc3ccc(N4CCNCC4)cn3)nc2n(C2CCCC2)c1=O [Palbociclib] (partner 0.5 µM)
Outline: as §1

Cell Line	relative viability (TGX 221 + Olaparib; first compound 0.08 µM)	relative viability (TGX 221 + Olaparib; first compound 0.253 µM)	relative viability (TGX 221 + Olaparib; first compound 0.8 µM)	relative viability (TGX 221 + Olaparib; first compound 2.53 µM)	relative viability (TGX 221 + Olaparib; first compound 8 µM)	relative viability (TGX 221 + Lapatinib; first compound 0.08 µM)	relative viability (TGX 221 + Lapatinib; first compound 0.253 µM)	relative viability (TGX 221 + Lapatinib; first compound 0.8 µM)	relative viability (TGX 221 + Lapatinib; first compound 2.53 µM)	relative viability (TGX 221 + Lapatinib; first compound 8 µM)	relative viability ([1]; first compound 0.08 µM)	relative viability ([1]; first compound 0.253 µM)	relative viability ([1]; first compound 0.8 µM)	relative viability ([1]; first compound 2.53 µM)	relative viability ([1]; first compound 8 µM)	relative viability ([2]; first compound 0.08 µM)	relative viability ([2]; first compound 0.253 µM)	relative viability ([2]; first compound 0.8 µM)	relative viability ([2]; first compound 2.53 µM)	relative viability ([2]; first compound 8 µM)
NCI-H1755	0.853	0.843	0.829	0.738	0.68	1.06	1.02	1.01	0.974	0.943	0.279	0.59	0.381	0.396	0.383	0.447	0.482	0.418	0.42	0.48
NCI-H1793	0.786	0.507	0.612	0.414	0.502	0.633	0.624	0.721	0.58	0.456	0.379	0.352	0.269	0.312	0.242	0.255	0.422	0.316	0.285	0.261
NCI-H1915	0.241	0.267	0.284	0.232	0.251	0.88	0.978	0.999	0.963	0.985	0.926	1.05	0.784	0.927	0.884	0.587	0.558	0.554	0.756	0.515
NCI-H1944	–	0.364	0.409	0.371	0.379	0.705	0.784	0.777	0.836	0.714	0.349	0.39	0.317	0.343	0.357	0.329	0.343	0.352	0.306	0.289
NCI-H1975	0.757	0.747	0.802	0.679	0.659	0.92	0.855	0.861	0.796	0.791	0.272	0.308	0.231	0.271	0.264	0.464	0.483	0.511	0.539	0.4
NCI-H1993	0.945	1.02	1.08	0.936	0.938	0.786	0.697	0.766	0.689	0.915	0.901	1.01	0.762	0.902	0.828	0.702	0.674	0.716	0.631	0.607
NCI-H2009	0.685	0.746	0.69	0.639	0.537	0.961	0.927	0.894	0.882	0.772	0.893	0.829	0.771	0.84	0.787	0.19	0.196	0.174	0.22	0.228
NCI-H2023	0.539	0.411	0.549	0.46	0.405	0.79	0.718	0.73	0.689	0.769	0.185	0.215	0.263	0.204	0.22	0.334	0.35	0.324	0.41	0.376
